Assay results published in US10227331B2 (priority 2015, dated 2019).

Columns and labels:
VIM-1 = VIM-1 (Pseudomonas aeruginosa (strain ATCC 15692 / DSM 22644 / CIP 104116 / JCM 14847 / LMG 12228 / 1C / PRS 101 / PAO1), UniProt A0A0F7KYQ8); experiment: biochemical; conditions: CCF2-FA substrate, 2 hours at 25° C
Method in brief: (§1)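 Fluorescence assay, CCF2-FA substrate (cephalosporin core linking 7-hydroxycoumarin to fluorescein); inhibitor + MBL + substrate, 2 h, 25° C. IC50 by 4-parameter fit, semi-log plot.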

[1] = system: P. aeruginosa expressing IMP-1, efflux− (MB9799); experiment: Efflux: concentration of MBL inhibitor which restores susceptibility to imipenem; assay type: cell-based, Pseudomonas aeruginosa; conditions: imipenem at 2 μg/mL, in the presence of a class A, C, D serine β-lactamase inhibitor closely related to relebactam
Source text: (§2) The strain background is Pseudomonas aeruginosa PAO1.

[2] = system: Escherichia coli expressing NDM-1 (CLB30005, CLB30016); assay type: cell-based; conditions: with imipenem 1 μg/ml, 95% inhibition of bacterial growth; for Escherichia coli MITC95: NDM-1 (CLB30016)
Method in brief: (§3)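 Colonies from overnight 35 °C blood-agar cultures were suspended in saline, diluted 1:100 into 1.1× CAMHB and exposed to test compound with or without imipenem at 1 μg/ml. After 22–24 h at 35 °C, absorbance was read to find the concentration restoring imipenem susceptibility.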

[3] = system: Klebsiella pneumoniae expressing VIM-1 (IHMA599644); assay type: cell-based; conditions: with imipenem 1 μg/ml, 95% inhibition of bacterial growth; for Klebsiella pneumoniae MITC95: VIM-1 (IHMA599644)
Method in brief: as §3

[4] = system: Serratia marcescens expressing IMP-1 (CL5741); assay type: cell-based; conditions: with imipenem 1 μg/ml, 95% inhibition of bacterial growth; for Serratia marcescens MITC95: IMP-1 (CL5741)
Method in brief: as §3

IMP-1 = IMP-1 (Serratia marcescens, UniProt P52699); experiment: biochemical; assay type: biochemical; conditions: CCF2-FA substrate, 2 hours at 25° C; read-out: IMP-1 IC50
Method in brief: as §1

NDM-1 = NDM-1 (Klebsiella pneumoniae, UniProt C7C422); experiment: biochemical; assay type: biochemical; conditions: CCF2-FA substrate, 2 hours at 25° C; read-out: NDM-1 IC50
Method in brief: as §1

[5] = system: P. aeruginosa expressing IMP-1, efflux+ (MB9798); assay type: cell-based, Pseudomonas aeruginosa; conditions: for P. aeruginosa expressing IMP-1, efflux+ (MB9798) MITC95: imipenem at 2 μg/mL, in the presence of a class A, C, D serine β-lactamase inhibitor closely related to relebactam; for Efflux ratio: ratio MITC95 PA_9798/MITC95 PA_9799
Source text: as §2

Chain of IMP-1 (P52699 whole entry, looked up, species assumed): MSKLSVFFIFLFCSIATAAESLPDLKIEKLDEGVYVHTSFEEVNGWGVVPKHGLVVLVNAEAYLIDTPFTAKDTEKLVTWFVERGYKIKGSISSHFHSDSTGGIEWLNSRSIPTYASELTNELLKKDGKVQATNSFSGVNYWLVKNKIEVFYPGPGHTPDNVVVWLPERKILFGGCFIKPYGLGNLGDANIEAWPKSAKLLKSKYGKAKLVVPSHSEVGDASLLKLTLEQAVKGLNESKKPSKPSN
Chain of NDM-1 (C7C422 whole entry, looked up, species assumed): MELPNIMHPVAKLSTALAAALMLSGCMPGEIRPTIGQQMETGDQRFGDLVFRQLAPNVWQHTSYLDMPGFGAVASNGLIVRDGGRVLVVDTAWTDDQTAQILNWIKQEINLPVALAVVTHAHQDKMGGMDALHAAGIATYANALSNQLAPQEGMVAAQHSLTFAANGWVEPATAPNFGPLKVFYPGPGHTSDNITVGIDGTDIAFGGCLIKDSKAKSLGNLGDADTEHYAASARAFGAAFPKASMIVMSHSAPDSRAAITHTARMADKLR

| SMILES | IC50 (VIM-1) [nM] | P. aeruginosa expressing IMP-1, efflux− (MB9799) MITC95 [1] [µM] | Escherichia coli expressing NDM-1 (CLB30016) MITC95 [2] [µM] | Klebsiella pneumoniae expressing VIM-1 (IHMA599644) MITC95 [3] [µM] | Serratia marcescens expressing IMP-1 (CL5741) MITC95 [4] [µM] | IC50 (IMP-1) [nM] | IC50 (NDM-1) [nM] | P. aeruginosa expressing IMP-1, efflux+ (MB9798) MITC95 [5] [µM] | Efflux ratio [5] | Escherichia coli MITC95 [2] [µM] | Klebsiella pneumoniae MITC95 [3] [µM] | Serratia marcescens MITC95 [4] [µM] |
| --- | --- | --- | --- | --- | --- | --- | --- | --- | --- | --- | --- | --- |
| Nc1ccc2ncc(-c3ccc(S(=O)(=O)C4CNC4)c(S(N)(=O)=O)c3-c3nn[nH]n3)n2n1 [Example 17, 3-(6-Aminoimidazo[1,2-b]pyridazin-3-yl)-6-(azetidin-3-ylsulfonyl)-2-(2H-tetrazol-5-yl)benzenesulfonamide] | 0.707 | 1.563 | 3.125 | 6.25 | 3.125 | 0.959 | 0.207 | 3.125 | 2.00 | – | – | – |
| CS(=O)(=O)Nc1nc2c(-c3ccc(S(=O)(=O)CCN)c(S(N)(=O)=O)c3-c3nn[nH]n3)cccc2s1 [Example 83, 6-(2-aminoethylsulfonyl)-3-(2-(methylsulfonamido)benzo[d]thiazol-4-yl)-2-(2H-tetrazol-5-yl)benzenesulfonamide] | 0.263 | 6.25 | 6.25 | 12.5 | 6.25 | 0.341 | 0.117 | 12.5 | 2.00 | – | – | – |
| Nc1nc2ccc(-c3ccc(S(=O)(=O)C4CNC4)c(S(N)(=O)=O)c3-c3nn[nH]n3)cn2n1 [Example 215, 3-(2-amino-[1,2,4]triazolo[1,5-a]pyridin-6-yl)-6-(azetidin-3-ylsulfonyl)-2-(2H-tetrazol-5-yl)benzenesulfonamide] | 0.298 | 3.125 | 3.125 | 6.25 | 3.125 | 2.19 | 0.239 | 6.25 | 2.00 | – | – | – |
| Nc1nc2c(-c3ccc(S(=O)(=O)CCO)c(S(N)(=O)=O)c3-c3nn[nH]n3)cccc2c[n+]1[O-] [Example 319, 2-amino-8-(4-((2-hydroxyethyl)sulfonyl)-3-sulfamoyl-2-(2H-tetrazol-5-yl)phenyl)quinazoline 3-oxide] | 0.407 | 12.5 | – | – | – | 1.92 | 0.194 | 25 | 2.00 | 100 | 50 | 25 |
| C[C@H](N)CS(=O)(=O)c1ccc(-c2cccc3[nH]c(C(=O)O)nc23)c(-c2nn[nH]n2)c1S(N)(=O)=O [Example 294, 4-(4-((S)-2-aminopropylsulfonyl)-3-sulfamoyl-2-(2H-tetrazol-5-yl)phenyl)-1H-benzo[d]imidazole-2-carboxylic Acid] | 0.184 | 1.563 | – | – | – | 0.35 | 0.0827 | 1.563 | 1.00 | 1.563 | 3.125 | 3.125 |
| Cn1c(N)nc2c(-c3ccc(S(=O)(=O)C[C@@H](O)CN)c(S(N)(=O)=O)c3-c3nn[nH]n3)cccc21 [Example 363, (S)-3-(2-amino-1-methyl-1H-benzo[d]imidazol-4-yl)-6-((3-amino-2-hydroxypropyl)sulfonyl)-2-(2H-tetrazol-5-yl) benzenesulfonamide] | 0.356 | 0.7813 | – | – | – | 0.425 | 0.275 | 0.7813 | 1.00 | 0.3906 | 1.563 | 0.7813 |
| Nc1nc2c(-c3ccc(S(=O)(=O)[C@@H]4CCNC4)c(S(N)(=O)=O)c3-c3nn[nH]n3)cccc2s1 [Example 183, 3-(2-aminobenzo[d]thiazol-4-yl)-6((R)-pyrrolidin-3-ylsulfonyl)-2-(2H-tetrazol-5-yl)benzenesulfonamide] | 0.294 | 0.7813 | 0.7813 | 1.563 | 1.563 | 0.157 | 0.122 | 0.7813 | 1.00 | – | – | – |
| N[C@H](CO)CS(=O)(=O)c1ccc(-c2cccc3[nH]cnc23)c(-c2nn[nH]n2)c1S(N)(=O)=O [Example 356, (R)-6-((2-amino-3-hydroxypropyl)sulfonyl)-3-(1H-benzo[d]imidazol-4-yl)-2-(2H-tetrazol-5-yl) benzenesulfonamide] | 0.344 | 1.563 | – | – | – | 0.496 | 0.27 | 1.563 | 1.00 | 1.563 | 3.125 | 1.563 |
| NC[C@@H](O)CS(=O)(=O)c1ccc(-c2ccc(N)nc2)c(-c2nn[nH]n2)c1S(N)(=O)=O [Example 364, (R)-6-((3-amino-2-hydroxypropyl)sulfonyl)-3-(6-aminopyridin-3-yl)-2-(2H-tetrazol-5-yl) benzenesulfonamide] | 0.875 | 0.7813 | – | – | – | 0.486 | 0.795 | 0.7813 | 1.00 | 0.3418 | 1.563 | 0.9766 |
| Nc1nc2c(-c3ccc(S(=O)(=O)[C@H]4C[C@H](N)C4)c(S(N)(=O)=O)c3-c3nn[nH]n3)cccc2s1 [Example 179] | 0.322 | 1.563 | 0.7813 | 1.563 | 1.563 | 0.135 | 0.106 | 0.7813 | 0.50 | – | – | – |
| NCCS(=O)(=O)c1ccc(-c2cccc3sc(N)nc23)c(-c2nn[nH]n2)c1S(N)(=O)=O [Example 313, 3-(2-aminobenzo[d]thiazol-4-yl)-6-((2-aminoethyl)sulfonyl)-2-(2H-tetrazol-5-yl)benzenesulfonamide] | 0.232 | 0.8929 | – | – | – | 0.257 | 0.155 | 0.6138 | 0.69 | 1.618 | 2.009 | 1.228 |
